molecular target: T1, SIRT1 (Homo sapiens, UniProt Q96EB6); assay: Mass spectrometry based SIRT1 deacetylase activation assay (acetylated p53-derived peptide substrate); format: biochemical; details: 0.5 μM peptide substrate, 120 μM βNAD+, 10 nM SIRT1, 25 minutes at 25° C.
T1 sequence (Q96EB6 1-747): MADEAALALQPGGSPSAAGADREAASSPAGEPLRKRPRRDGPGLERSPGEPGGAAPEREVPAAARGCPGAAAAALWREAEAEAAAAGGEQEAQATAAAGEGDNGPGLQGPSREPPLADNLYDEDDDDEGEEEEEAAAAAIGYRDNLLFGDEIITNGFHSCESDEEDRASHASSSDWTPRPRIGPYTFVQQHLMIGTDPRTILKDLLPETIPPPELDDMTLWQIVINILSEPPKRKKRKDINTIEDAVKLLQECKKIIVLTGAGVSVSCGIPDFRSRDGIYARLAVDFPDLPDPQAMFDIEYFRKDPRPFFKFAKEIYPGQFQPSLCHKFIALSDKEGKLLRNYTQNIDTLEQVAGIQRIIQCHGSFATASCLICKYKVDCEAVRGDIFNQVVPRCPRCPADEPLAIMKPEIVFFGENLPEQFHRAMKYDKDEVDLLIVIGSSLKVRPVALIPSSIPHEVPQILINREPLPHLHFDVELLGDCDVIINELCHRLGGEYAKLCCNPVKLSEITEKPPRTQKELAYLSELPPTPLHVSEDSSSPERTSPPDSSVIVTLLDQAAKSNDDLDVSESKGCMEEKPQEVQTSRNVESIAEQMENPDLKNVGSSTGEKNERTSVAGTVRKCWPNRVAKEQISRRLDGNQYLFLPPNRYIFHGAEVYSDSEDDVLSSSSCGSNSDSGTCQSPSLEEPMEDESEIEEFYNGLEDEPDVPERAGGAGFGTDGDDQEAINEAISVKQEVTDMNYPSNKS

Structure (SMILES)	EC1.5	Fold Act. (percent maximum fold activation)
O=C(Nc1cccc(OCC(O)CO)c1)c1cccc2[nH]c(-c3cccnc3)nc12 (centres unmarked) [Compound 794]	A (EC1.5<1.0 uM)	A (Fold activation >200%)
O=C(Nc1nc(CN2CCOCC2)cs1)c1cccc2[nH]c(-c3cccnc3)nc12 [Compound 795]	C (EC1.5 >25 uM)	B (Fold Activation <200%)
O=C(Nc1nc(CN2CCOCC2)cs1)c1cccc2[nH]c(-c3cccc(Cl)c3)nc12 [Compound 796]	B (EC1.5 1-25 uM)	B (Fold Activation <200%)
O=C(Nc1ccc(OC[C@H](O)CO)cc1)c1cccc2[nH]c(-c3cccnc3)nc12 [Compound 797]	A (EC1.5<1.0 uM)	A (Fold activation >200%)
Cc1nc(C)c(-c2nc3c(C(=O)Nc4ccc(OC[C@H](O)CO)cc4)cccc3[nH]2)s1 [Compound 798]	A (EC1.5<1.0 uM)	A (Fold activation >200%)
O=C(Nc1nccs1)c1cncc2[nH]c(-c3ccc(N4CCCC4)cc3C(F)F)nc12 [Compound 799]	A (EC1.5<1.0 uM)	A (Fold activation >200%)
Cc1cnc(NC(=O)c2cncc3[nH]c(-c4ccc(N5CCCC5)cc4C(F)F)nc23)s1 [Compound 800]	A (EC1.5<1.0 uM)	A (Fold activation >200%)
O=C(Nc1ccccn1)c1cncc2[nH]c(-c3ccc(N4CCCC4)cc3C(F)F)nc12 [Compound 801]	A (EC1.5<1.0 uM)	A (Fold activation >200%)
O=C(Nc1cccnn1)c1cncc2[nH]c(-c3ccc(N4CCCC4)cc3C(F)F)nc12 [Compound 802]	A (EC1.5<1.0 uM)	A (Fold activation >200%)
O=C(Nc1ccncn1)c1cncc2[nH]c(-c3ccc(N4CCCC4)cc3C(F)F)nc12 [Compound 803]	A (EC1.5<1.0 uM)	A (Fold activation >200%)
O=C(Nc1nccs1)c1cncc2[nH]c(-c3ccc(N4CCOCC4)cc3C(F)F)nc12 [Compound 804]	A (EC1.5<1.0 uM)	A (Fold activation >200%)
Cc1cnc(NC(=O)c2cncc3[nH]c(-c4ccc(N5CCOCC5)cc4C(F)F)nc23)s1 [Compound 805]	A (EC1.5<1.0 uM)	A (Fold activation >200%)
O=C(Nc1ccccn1)c1cncc2[nH]c(-c3ccc(N4CCOCC4)cc3C(F)F)nc12 [Compound 806]	A (EC1.5<1.0 uM)	A (Fold activation >200%)
O=C(Nc1cccnc1)c1cncc2[nH]c(-c3ccc(N4CCOCC4)cc3C(F)F)nc12 [Compound 807]	A (EC1.5<1.0 uM)	A (Fold activation >200%)
O=C(Nc1nccs1)c1cncc2nc(-c3ccc(OC[C@H](O)CO)cc3C(F)F)[nH]c12 [Compound 808]	A (EC1.5<1.0 uM)	A (Fold activation >200%)
Cc1cnc(NC(=O)c2cncc3nc(-c4ccc(OC[C@H](O)CO)cc4C(F)F)[nH]c23)s1 [Compound 809]	A (EC1.5<1.0 uM)	A (Fold activation >200%)
O=C(Nc1ccccn1)c1cncc2nc(-c3ccc(OC[C@H](O)CO)cc3C(F)F)[nH]c12 [Compound 810]	A (EC1.5<1.0 uM)	A (Fold activation >200%)
O=C(Nc1cccc(OC[C@H](O)CO)c1)c1cc(F)cc2[nH]c(-c3ccccc3C(F)F)nc12 [Compound 811, (R)-2-(2-(difluoromethyl)phenyl)-N-(3-(2,3-dihydroxypropoxy)phenyl)-6-fluoro-1H-benzo[d]imidazole-4-carboxamide]	A (EC1.5<1.0 uM)	A (Fold activation >200%)
O=C(Nc1cccnc1)c1cncc2nc(-c3ccc(N4CCCC4)cc3C(F)F)[nH]c12 [Compound 812]	A (EC1.5<1.0 uM)	A (Fold activation >200%)
O=C(Nc1ccc(CN2CCCC2)cc1)c1cccc2[nH]c(-c3ccc(F)cc3C(F)(F)F)nc12 [Compound 813]	A (EC1.5<1.0 uM)	A (Fold activation >200%)

Structure (SMILES)	EC1.5	Fold Act. (percent maximum fold activation)
Cc1ncccc1-c1nc2c(C(=O)Nc3cccc(CN4CCOCC4)n3)cccc2[nH]1 [Compound 814, 2-(2-methylpyridin-3-yl)-N-(6-(morpholinomethyl)pyridin-2-yl)-1H-benzo[d]imidazole-4-carboxamide]	A (EC1.5<1.0 uM)	A (Fold activation >200%)
Cc1ccc(-c2nc3c(C(=O)Nc4cccc(CN5CCOCC5)n4)cccc3[nH]2)cn1 [Compound 815, 2-(6-methylpyridin-3-yl)-N-(6-(morpholinomethyl)pyridin-2-yl)-1H-benzo[d]imidazole-4-carboxamide]	A (EC1.5<1.0 uM)	A (Fold activation >200%)
Cc1cc(-c2nc3c(C(=O)Nc4cccc(CN5CCOCC5)n4)cccc3[nH]2)ccn1 [Compound 816, 2-(2-methylpyridin-4-yl)-N-(6-(morpholinomethyl)pyridin-2-yl)-1H-benzo[d]imidazole-4-carboxamide]	A (EC1.5<1.0 uM)	A (Fold activation >200%)
O=C(Nc1cccc(CN2CCOCC2)n1)c1cccc2[nH]c(-c3ccccc3C(F)F)nc12 [Compound 817]	A (EC1.5<1.0 uM)	A (Fold activation >200%)
O=C(Nc1cccc(CN2CCOCC2)n1)c1cccc2[nH]c(-c3ccc(F)cc3C(F)F)nc12 [Compound 818]	A (EC1.5<1.0 uM)	A (Fold activation >200%)
O=C(Nc1cccc(CN2CCOCC2)n1)c1cccc2[nH]c(-c3ccc(Cl)cc3C(F)F)nc12 [Compound 819]	A (EC1.5<1.0 uM)	A (Fold activation >200%)
O=C(Nc1nc(CN2CCOCC2)cs1)c1cccc2[nH]c(-c3cc(F)cc(F)c3)nc12 [Compound 820]	B (EC1.5 1-25 uM)	A (Fold activation >200%)
O=C(Nc1nccs1)c1cc(F)cc2nc(-c3ccc(Cl)cc3C(F)F)[nH]c12 [Compound 821]	A (EC1.5<1.0 uM)	A (Fold activation >200%)
Cc1cnc(NC(=O)c2cc(F)cc3nc(-c4ccc(Cl)cc4C(F)F)[nH]c23)s1 [Compound 822]	A (EC1.5<1.0 uM)	A (Fold activation >200%)
O=C(Nc1ccccn1)c1cc(F)cc2nc(-c3ccc(Cl)cc3C(F)F)[nH]c12 [Compound 823]	A (EC1.5<1.0 uM)	A (Fold activation >200%)
O=C(Nc1nccs1)c1cc(F)cc2nc(-c3ccc(F)cc3C(F)F)[nH]c12 [Compound 824]	A (EC1.5<1.0 uM)	A (Fold activation >200%)
Cc1cnc(NC(=O)c2cc(F)cc3nc(-c4ccc(F)cc4C(F)F)[nH]c23)s1 [Compound 825]	A (EC1.5<1.0 uM)	A (Fold activation >200%)
O=C(Nc1ccccn1)c1cc(F)cc2nc(-c3ccc(F)cc3C(F)F)[nH]c12 [Compound 826]	A (EC1.5<1.0 uM)	A (Fold activation >200%)
O=C(Nc1nccs1)c1cccc2[nH]c(-c3ccc(CN4CCCC4)cc3C(F)(F)F)nc12 [Compound 828, 2-(4-(pyrrolidin-1-ylmethyl)-2-(trifluoromethyl)phenyl)-N-(thiazol-2-yl)-1H-benzo[d]imidazole-4-carboxamide]	A (EC1.5<1.0 uM)	A (Fold activation >200%)
O=C(Nc1cccnc1)c1cc(F)cc2[nH]c(-c3ccc(OC[C@H](O)CO)cc3C(F)F)nc12 [Compound 829]	A (EC1.5<1.0 uM)	A (Fold activation >200%)
O=C(Nc1ccccn1)c1cc(F)cc2[nH]c(-c3ccc(OC[C@H](O)CO)cc3C(F)F)nc12 [Compound 830]	A (EC1.5<1.0 uM)	A (Fold activation >200%)
O=C(Nc1nccs1)c1cc(F)cc2[nH]c(-c3ccc(OC[C@@H](O)CO)cc3C(F)F)nc12 [Compound 831]	A (EC1.5<1.0 uM)	A (Fold activation >200%)
O=C(Nc1nccs1)c1cc(F)cc2nc(-c3ccccc3C(F)F)[nH]c12 [Compound 832]	A (EC1.5<1.0 uM)	A (Fold activation >200%)
Cc1cnc(NC(=O)c2cc(F)cc3nc(-c4ccccc4C(F)F)[nH]c23)s1 [Compound 833]	A (EC1.5<1.0 uM)	A (Fold activation >200%)
O=C(Nc1ccccn1)c1cc(F)cc2nc(-c3ccccc3C(F)F)[nH]c12 [Compound 834]	A (EC1.5<1.0 uM)	A (Fold activation >200%)

— patent publication US8846947B2, “Benzimidazoles and related analogs as sirtuin modulators” (GlaxoSmithKline LLC, priority 2008, dated 2014)
